Activity calls are given as the source filed them. How the calls were made is not given here.
Test system: rodent lifetime carcinogenesis bioassay, tumor incidence TD50
Assay: chronic cancer bioassays in animals – CPDB, compiled studies (AID 1745844)

CCOP(=O)=O.CCOP(=O)=O.CCOP(=O)=O.[Al+3]
TD50 (rat, strain Charles River CD1, females, in feed, site: kidney/pelvis, lesion: several types, types named in the paper, dosed 104 weeks, study length 104 weeks): 14600 mg/kg/day | TD50 (rat, strain Charles River CD1, females, in feed, site: kidney/pelvis, lesion: transitional-cell carcinoma, dosed 104 weeks, study length 104 weeks): 17800 mg/kg/day | TD50 (rat, strain Charles River CD1, females, in feed, site: kidney/pelvis, lesion: transitional-cell papilloma, dosed 104 weeks, study length 104 weeks): 80400 mg/kg/day | TD50 (rat, strain Charles River CD1, females, in feed, site: urinary bladder, lesion: adenosquamous carcinoma, dosed 104 weeks, study length 104 weeks): 110000 mg/kg/day | TD50 (rat, strain Charles River CD1, females, in feed, site: urinary bladder, lesion: several types, types named in the paper, dosed 104 weeks, study length 104 weeks): 17600 mg/kg/day | TD50 (rat, strain Charles River CD1, females, in feed, site: urinary bladder, lesion: transitional-cell carcinoma, dosed 104 weeks, study length 104 weeks): 23900 mg/kg/day | TD50 (rat, strain Charles River CD1, females, in feed, site: urinary bladder, lesion: transitional-cell papilloma, dosed 104 weeks, study length 104 weeks): 452000 mg/kg/day | TD50 (rat, strain Charles River CD1, males, in feed, site: kidney/pelvis, lesion: several types, types named in the paper, dosed 104 weeks, study length 104 weeks): 36400 mg/kg/day | TD50 (rat, strain Charles River CD1, males, in feed, site: kidney/pelvis, lesion: transitional-cell papilloma, dosed 104 weeks, study length 104 weeks): 31800 mg/kg/day | TD50 (rat, strain Charles River CD1, males, in feed, site: urinary bladder, lesion: several types, types named in the paper, dosed 104 weeks, study length 104 weeks): 3660 mg/kg/day | TD50 (rat, strain Charles River CD1, males, in feed, site: urinary bladder, lesion: transitional-cell carcinoma, dosed 104 weeks, study length 104 weeks): 5000 mg/kg/day | TD50 (rat, strain Charles River CD1, males, in feed, site: urinary bladder, lesion: transitional-cell papilloma, dosed 104 weeks, study length 104 weeks): 17200 mg/kg/day

NC(=O)c1cnccn1
TD50 (mouse, strain B6C3F1, females, in feed, site: any site (literature study), lesion: several types, types named in the paper, dosed 78 weeks, study length 104 weeks): 3430 mg/kg/day | TD50 (mouse, strain B6C3F1, females, in feed, site: liver, lesion: hepatocellular adenoma + hepatocellular carcinoma + neoplastic nodule, dosed 78 weeks, study length 104 weeks): 10700 mg/kg/day | TD50 (mouse, strain B6C3F1, males, in feed, site: any site (literature study), lesion: several types, types named in the paper, dosed 78 weeks, study length 104 weeks): 546 mg/kg/day (inactive) | TD50 (mouse, strain B6C3F1, males, in feed, site: liver, lesion: hepatocellular adenoma + hepatocellular carcinoma + neoplastic nodule, dosed 78 weeks, study length 104 weeks): 5180 mg/kg/day | TD50 (rat, strain Fischer 344, females, in feed, site: any site (literature study), lesion: several types, types named in the paper, dosed 78 weeks, study length 104 weeks): 182 mg/kg/day | TD50 (rat, strain Fischer 344, females, in feed, site: pituitary gland, lesion: chromophobe adenoma + chromophobe carcinoma, dosed 78 weeks, study length 104 weeks): 178 mg/kg/day (inactive) | TD50 (rat, strain Fischer 344, males, in feed, site: any site (literature study), lesion: several types, types named in the paper, dosed 78 weeks, study length 104 weeks): 284 mg/kg/day (inactive)

O=C(O)c1cccnc1
carcinogen call (mouse, strain Swiss albino, females, in drinking water, site: liver, lesion: several types, types named in the paper, dosed 139 weeks, study length 139 weeks): negative (inactive) | TD50 (mouse, strain Swiss albino, females, in drinking water, site: lung, lesion: one or several types, types not named, dosed 139 weeks, study length 139 weeks): 17000 mg/kg/day (inactive) | carcinogen call (mouse, strain Swiss albino, males, in drinking water, site: liver, lesion: several types, types named in the paper, dosed 119 weeks, study length 119 weeks): negative (inactive) | carcinogen call (mouse, strain Swiss albino, males, in drinking water, site: lung, lesion: one or several types, types not named, dosed 119 weeks, study length 119 weeks): negative (inactive)

CC(=O)Oc1ccccc1C(=O)O
carcinogen call (mouse, strain C57BL/6, females, in feed, site: liver, lesion: one or several types, types not named, dosed 77 weeks, study length 77 weeks): negative (inactive) | carcinogen call (mouse, strain C57BL/6, males, in feed, site: liver, lesion: one or several types, types not named, dosed 77 weeks, study length 77 weeks): negative (inactive) | carcinogen call (rat, strain Fischer 344, males, in feed, site: colon, lesion: one or several types, types not named, dosed 56 weeks, study length 56 weeks): negative (inactive) | TD50 (rat, strain Fischer 344, males, in feed, site: urinary bladder, lesion: papilloma, dosed 68 weeks, study length 68 weeks): 1670 mg/kg/day | carcinogen call (rat, strain Wistar, males, in feed, site: liver, lesion: one or several types, types not named, dosed 52 weeks, study length 52 weeks): negative (inactive) | carcinogen call (rat, strain albino, both sexes, by gavage, site: forestomach, lesion: one or several types, types not named, dosed 78 weeks, study length 78 weeks): negative (inactive) | carcinogen call (rat, strain albino, both sexes, by gavage, site: stomach, glandular, lesion: one or several types, types not named, dosed 78 weeks, study length 78 weeks): negative (inactive)
